By ED50 is commonly meant the dose that gives a 50% effect, or the effect in half of the subjects.

The source of these data is patent US5480905A, “Benzodioxane derivatives” (Chugai Seiyaku Kabushiki Kaisha, priority 1991, dated 1996).

The structures appear in SMILES notation. “Also recorded” adds a separate entry of the source.

One data set concerns the target T1, serotonin 1A receptor (Rattus norvegicus, UniProt P19327).
T1 construct: the cortex and hippocampal tissue were extracted from the brain; from tissue; host or cells: brain cortex and hippocampus of 7-week-old male S.D. rats, washed membrane homogenate
T1 sequence (P19327 1-422): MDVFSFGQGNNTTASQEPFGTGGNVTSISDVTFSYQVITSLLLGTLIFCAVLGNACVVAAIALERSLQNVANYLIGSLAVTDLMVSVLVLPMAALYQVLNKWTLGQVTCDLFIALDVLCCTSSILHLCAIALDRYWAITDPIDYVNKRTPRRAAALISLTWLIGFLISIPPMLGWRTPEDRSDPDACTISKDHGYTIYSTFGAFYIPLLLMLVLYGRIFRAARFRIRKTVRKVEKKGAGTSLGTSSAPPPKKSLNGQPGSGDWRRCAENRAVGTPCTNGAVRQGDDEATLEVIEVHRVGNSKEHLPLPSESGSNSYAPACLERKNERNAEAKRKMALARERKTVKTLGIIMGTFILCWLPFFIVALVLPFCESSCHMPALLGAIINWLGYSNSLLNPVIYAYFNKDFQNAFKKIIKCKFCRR
Briefly: Serotonin 1A receptor binding experiment (3H-8-OH-DPAT). The note with it: rat cortex and hippocampal tissue; 0.5 nM 3H-8-OH-DPAT; IC50 in M; read-out: -logIC50 5-HT1A (converted). Here is the method: (§1) Affinity for intracerebral serotonin 1A and serotonin 2 receptor was checked in accordance with the method of Hall et al. (J. Neurochem., 44, 1685-1695, 1985) and the method of Leysen et al. (Mol. Pharmacol., 21, 301-314, 1982).
(§2) Stated more specifically, the cortex and hippocampal tissue were extracted from the brain of 7-wk old S.D. line male rats, mixed with 20 volumes of Tris-HCl buffer (50 mM, pH 7.7) and homogenized with a Teflon homogenizer. Thereafter, the homogenate was centrifuged at 39800×g for 20 min and the supernatant was discarded. Forty volumes of a buffer were added to the precipitate and the mixture was homogenized with a Polytron homogenizer, with the homogenate being centrifuged under the same condition as set forth above. The same procedure was repeated two more times and the final precipitate was homogenized with 40 volumes of a buffer; thereafter, the homogenate was stored at least overnight at -80° C. On the day when binding experiments were to be conducted, the homogenate was thawed at room temperature and incubated at 37° C. for 20 min to remove the endogenous serotonin.
(§3) Thereafter, centrifugation was conducted at 39800×g for 20 min and 40 volumes of a buffer were added to the precipitate, followed by homogenization. This procedure was repeated three times; to the final precipitate, a buffer was added in 65 volumes for the case of serotonin 1A receptor and in 80 volumes for the case of serotonin 2 receptor and the mixture was homogenized in preparation for the binding experiments that are described below. All procedures of experimentation except storage in a frozen state and thawing at room temperature were conducted at 4° C. or below.
A reaction solution containing 0.5 nM (final concentration) of 3H-8-hydroxy-2-(di-n-propylamino)tetralin (8-OH-DPAT), […] and 500 μl of brain homogenate in 1.0 ml (final volume) of a buffer was incubated at 25° C. for 30 min. Thereafter, the reaction solution was filtered by rapid passage through a glass filler. The filter was washed rapidly with an ice-cooled buffer (3 ml) three times, put into a scintillation vial together with a scintillation cocktail, and left to stand overnight at 4° C. On the next day, the vial was agitated well and measurements were conducted with a scintillation counter. To determine the amount of specific binding, the amount of binding in the presence of excess unlabeled serotonin (10 μM) was subtracted from the total amount of binding. As an index for the affinity of a test compound for either receptor, the concentration at which the specific binding of ^3 H-DPAT was inhibited by 50% (IC50, M) was determined using computer software EBDA/LIGAND (Biosoft).

The target of the next data set is T2, serotonin 2 receptor (Rattus norvegicus, UniProt P14842).
T2 construct: the cortex and hippocampal tissue were extracted from the brain; from tissue; host or cells: brain cortex and hippocampus of 7-week-old male S.D. rats, washed membrane homogenate
T2 sequence (P14842 whole entry): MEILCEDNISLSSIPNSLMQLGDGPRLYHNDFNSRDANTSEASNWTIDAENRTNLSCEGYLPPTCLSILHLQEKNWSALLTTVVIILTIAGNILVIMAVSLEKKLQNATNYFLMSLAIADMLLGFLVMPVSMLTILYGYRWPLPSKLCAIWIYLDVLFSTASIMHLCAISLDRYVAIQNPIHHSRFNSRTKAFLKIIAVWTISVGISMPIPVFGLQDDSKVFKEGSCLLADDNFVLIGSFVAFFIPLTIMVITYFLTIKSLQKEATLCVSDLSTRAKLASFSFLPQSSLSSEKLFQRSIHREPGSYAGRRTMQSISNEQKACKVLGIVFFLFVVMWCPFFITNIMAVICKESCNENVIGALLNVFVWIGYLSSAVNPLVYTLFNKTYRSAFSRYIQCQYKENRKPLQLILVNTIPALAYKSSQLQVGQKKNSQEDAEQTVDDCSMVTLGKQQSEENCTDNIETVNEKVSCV
Briefly: Serotonin 2 receptor binding experiment (3H-ketancerine). Particulars: rat cortex and hippocampal tissue; 0.5 nM 3H-ketancerine; IC50 in M; read-out: -logIC50 5-HT2 (converted). Here is the method: as §1, §2, §3
A reaction solution containing 0.5 nM (final concentration) of ^3 H-ketancerine and 500 μl of brain homogenate in 1.0 ml (final volume) of a buffer was incubated at 30° C. for 30 min. Subsequent procedures were the same as in the serotonin 1A receptor binding experiment and IC50 (M) was determined accordingly. To determine the amount of specific binding, the amount of binding in the presence of excess unlabelled methysergide ([…]) was subtracted from the total amount of binding.

Data set [1] deals with S.D. line male rats. Briefly: Antidepressant effect, compelled swim test (Porsolt), time over which rats remain motionless. In kind it is in vivo, rat. Set-up: Antidepressant effect / Antidepressant effect, longevity: scale not given here. Particulars: for inhibition in vivo at 20 mg/kg / ED50: Rattus norvegicus, po, 0.5 h; for inhibition in vivo at 20 mg/kg: 30 min before swim, read-out: Antidepressant effect, Efficacy; for ED50: peroral, probit method, read-out: ED50, dose reducing motionless time by one half vs control.

Data set [2] concerns S.D. line male rats. Briefly: Sedative action, amount of spontaneous movement (Animex). In kind it is in vivo, rat. The note with it: for Amount of Spontaneous Movement: control 405.2 ± 47.7; for Sedative action / spontaneous movement: peroral 20-60 mg/kg. As for the experimental part:
Seven-week old male S.D. line rats were administered a test drug perorally and after the passage of 30 min, the amount of spontaneous movement of the rats was measured for 10 min by means of Animex.

Data set [3] deals with apomorphine induced stereotypic behavior. Briefly: Antidopamine action, apomorphine induced stereotypic behavior. In kind it is in vivo, rat. The note with it: for Apomorphine Induced Stereotypic Behavior, sum of scores: maximum of 24; for Antidopamine action: peroral, apomorphine 0.5 mg/kg s.c. Here is the method:
Seven-week old male S.D. line rats were administered a test drug perorally and after the passage of 30 min, the dopamine agonist apomorphine was injected subcutaneously in an amount of 0.5 mg/kg. For the subsequent 5-30 min period, the intensity of stereotypic behavior that was induced in the rats by apomorphine was measured six times at 5-min intervals by a scoring method and the sum of the scores was determined (for a maximum of 24).

Setting [4] is: peroral 20 mg/kg, 0.5 h after administration.
Where [5] appears, read: peroral 20 mg/kg, 2.0 h after administration.
The mark [6] stands for this setting: peroral 20 mg/kg, 4.0 h after administration.
Where [7] appears, read: 20 mg/kg peroral, control 14.4 ± 0.9 (Comp. 1: 16.0 ± 1.1).

As for `O=C(NCCN1CCN(c2ncccn2)CC1)C12CC3CC(CC(C3)C1)C2` [WY-50324, reference compound], the IC50 at serotonin 1A receptor was 1.26 nM; at serotonin 2 receptor, 200 nM. Also, the inhibition in vivo at 20 mg/kg with S.D. line male rats [1] (peroral 20 mg/kg) is 58.1 ± 5%. Moreover, in the data set on S.D. line male rats [1], the ED50 was 24.3 mg/kg. In addition, the “Antidepressant effect, longevity” value with S.D. line male rats [1] (setting [4]) stood at 56.7; in the data set with S.D. line male rats [1] (setting [5]), 17.3; in the data set with S.D. line male rats [1] (setting [6]), 0.7. For the same compound, the “Amount of Spontaneous Movement” value in the data set on S.D. line male rats [2] (20 mg/kg peroral) worked out at 315.5 Counts/10 min; in the data set with S.D. line male rats [2] (40 mg/kg peroral) it was 361.9 Counts/10 min; in the data set on S.D. line male rats [2] (60 mg/kg peroral) it was 401.6 Counts/10 min. Also, the “Sedative action / spontaneous movement” value in the data set on S.D. line male rats [2] is given as “no appreciable sedative action”. Moreover, the “Apomorphine Induced Stereotypic Behavior, sum of scores” value in data set [3] (10 mg/kg peroral, control 14.4 ± 0.9) is reported as 14.7; in data set [3] (setting [7]), 12.1; in data set [3] (40 mg/kg peroral, control 14.4 ± 0.9), 10.9. For the same compound, the “Antidopamine action” value in data set [3] was “showed an inhibitory action in high doses”.
Consider `Cc1cccc2c1OC(CNCCNC(=O)C13CC4CC(CC(C4)C1)C3)CO2` (stereo not shown) [Compound 1, N-{[2-(8-methyl-1,4-benzodioxan-2-ylmethyl)amino]ethyl}tricyclo[3,3,1,1^3, ^7]decane-1-carboxyamide], for which the IC50 at serotonin 1A receptor is 1.17 nM; at serotonin 2 receptor, 30.2 nM. In the data set with S.D. line male rats [1] (peroral 20 mg/kg), the inhibition in vivo at 20 mg/kg was determined as 72 ± 5.5%. In addition, the ED50 in the data set with S.D. line male rats [1] worked out at 8.1 mg/kg. Moreover, the values for the Antidepressant effect with S.D. line male rats [1] (peroral 10 mg/kg) and in the data set with S.D. line male rats [1] (peroral 20 mg/kg) were 66.7 ± 12.6 and “better antidepressant effects than WY-50324”, respectively. For the same compound, the “Antidepressant effect, longevity” value in the data set on S.D. line male rats [1] (setting [4]) was 71.8; with S.D. line male rats [1] (setting [5]), 73.9; in the data set on S.D. line male rats [1] (setting [6]), 40.7. Besides, the “Antidepressant activity relative to WY-50324 (ED50)” value in the data set on S.D. line male rats [1] (ratio of ED50) is “three times the activity of WY-50324”. Also, the figures for the “Amount of Spontaneous Movement” value in the data set on S.D. line male rats [2] (20 mg/kg peroral), in the data set on S.D. line male rats [2] (40 mg/kg peroral) and in the data set with S.D. line male rats [2] (60 mg/kg peroral) were 442.0 Counts/10 min, 401.8 Counts/10 min and 319.4 Counts/10 min, respectively. Further, the “Sedative action / spontaneous movement” value in the data set with S.D. line male rats [2] is given as “no appreciable sedative action”. Further, the “Apomorphine Induced Stereotypic Behavior, sum of scores” value in data set [3] (setting [7]) came to 14.7. In data set [3], the “Antidopamine action” value is reported as “no effect at all when it was used in a dose of 20 mg/kg; also recorded: no antidopamine action”.
